Biological target: T1, Acetylcholinesterase human (AChE) (Homo sapiens, UniProt P22303)
T1 construct: purchased Sigma-Aldrich (Poznań, Poland)
Test: AChE inhibition kinetics, Ellman's method combined with capillary electrophoresis
Format: biochemical
Settings: for type of AChE inhibition: from Lineweaver-Burk plots, Km and Vmax; for IC50: from activity (%) versus inhibitor concentration plots; for Tilt Angle of Lineweaver-Burk line: acetylthiocholine 0.36–46.00 mM, n = 6; for amount of 4,4-dithio-bis-acid nitrobenzoic (DBAN) product in the presence of inhibitor: 0.66 mM without inhibitors
Source text: In this work, we used the combined Ellman’s method with the capillary electrophoresis method developed by us for the determination of 4,4-dithio-bis-acid nitrobenzoic (DBAN) (main enzyme reaction product) in the presence of acetylthiocholine (ACth), 5-thio-2-nitrobenzoic acid (NTB), 5,5′-dithio-bis-2-nitrobenzoic acid (DTNB), acetylcholinesterase (AChE) and inhibitors (I), (II), (III) and (IV) of acetylcholinesterase. For the development of this method, we optimized the buffer pH, separating background electrolyte (BGE) concentration, wavelength, temperature, and voltage. […] All these separation systems were tested to achieve the best separation parameters, resolution, and analysis time for all components in the reaction mixture. […] Separation was carried out at 15 kV. Each sample was added to the capillary under hydrodynamic injection.
The samples were injected under 5 psi pressure for 3 s. The experiments were performed under constant current conditions (85 μA). […] Before the assay, the capillary was conditioned with 0.1 M NaOH for 10 min at 10 psi and with H2O for 10 min at 10 psi. Then, it was electro conditioned with the running buffer for 20 min at +10 kV and pressure-conditioned with the running buffer for 10 min at 10 psi. Before each injection, the capillary was washed with 1 M NaOH for 2 min, then with H2O for 2 min, and finally with BGE for 2 min. At the end of each working day, the capillary was rinsed for 10 min with 0.1 M NaOH, 10 min with BGE, and 10 min with deionized water at 15 psi. Then, the capillary was exposed to air for 10 min at 20 psi and left empty.
Sample mixtures containing 4,4-dithio-bis-acid nitrobenzoic (DBAN) (main enzyme reaction product) in the presence of acetylthiocholine (ACth), 5-thio-2-nitrobenzoic acid (NTB), 5,5′-dithio-bis-2-nitrobenzoic acid (DTNB), acetylcholinesterase (AChE) and inhibitors (I), (II), (III) and (IV) were introduced automatically by pressure injection (with 2 psi pressure for 5 s on the sample solution). At the day’s end, vials with anode and cathode buffer were emptied and running buffer was filled again at the start of the next day before the analysis.
Acetylcholinesterase activity was determined according to the method by Ellman et al. and according to the procedure described by Rosilene R et al. but slightly modified. […] The tubes containing solutions were preincubated for 2 min at 25 °C. Then, 0.1 mL […] AChE was introduced into tubes 1–9, at an interval of 1 min. All 10 samples were incubated for 3 min at 25 °C. After incubation, the analytical samples were introduced into the capillary.
The inhibition constants (Ki) were calculated from the plotted Lineweaver–Burk curves for the four concentrations of the inhibitors (I), (II), (III) and (IV). The method was based on two steps (Figure 8).

[1] = inhibitor 0.08 mM, acetylthiocholine 0.36 mM
[2] = inhibitor 0.08 mM, acetylthiocholine 0.72 mM
[3] = inhibitor 0.08 mM, acetylthiocholine 1.44 mM
[4] = inhibitor 0.08 mM, acetylthiocholine 2.88 mM
[5] = inhibitor 0.08 mM, acetylthiocholine 5.75 mM
[6] = inhibitor 0.08 mM, acetylthiocholine 11.50 mM
[7] = inhibitor 0.08 mM, acetylthiocholine 23.00 mM
[8] = inhibitor 0.08 mM, acetylthiocholine 34.50 mM
[9] = inhibitor 0.08 mM, acetylthiocholine 46.00 mM

T1 sequence (P22303 32-614): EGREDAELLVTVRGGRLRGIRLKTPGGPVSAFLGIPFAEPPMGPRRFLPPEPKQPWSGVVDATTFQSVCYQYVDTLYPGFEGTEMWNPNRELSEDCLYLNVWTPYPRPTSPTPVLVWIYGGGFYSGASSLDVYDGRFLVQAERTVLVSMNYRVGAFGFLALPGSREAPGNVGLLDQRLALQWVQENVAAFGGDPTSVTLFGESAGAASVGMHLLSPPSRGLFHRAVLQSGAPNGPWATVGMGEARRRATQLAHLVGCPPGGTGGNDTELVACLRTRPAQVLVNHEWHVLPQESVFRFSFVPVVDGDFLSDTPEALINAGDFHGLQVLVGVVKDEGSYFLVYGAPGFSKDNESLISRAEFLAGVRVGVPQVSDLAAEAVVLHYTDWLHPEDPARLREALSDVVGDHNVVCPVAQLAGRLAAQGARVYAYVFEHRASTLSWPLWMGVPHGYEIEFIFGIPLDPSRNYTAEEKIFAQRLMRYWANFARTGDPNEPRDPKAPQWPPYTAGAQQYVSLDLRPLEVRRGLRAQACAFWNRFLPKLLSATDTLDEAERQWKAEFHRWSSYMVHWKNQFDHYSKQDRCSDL

Structure (SMILES) | type of AChE inhibition | IC50 [µM] | Vmax (inhibitor 0.01 mM) [mM/min] | Tilt Angle of Lineweaver-Burk line (inhibitor 0.01 mM) [°] | Vmax (inhibitor 0.02 mM) [mM/min] | Vmax (inhibitor 0.04 mM) [mM/min] | Tilt Angle of Lineweaver-Burk line (inhibitor 0.04 mM) [°] | Vmax (inhibitor 0.06 mM) [mM/min] | Tilt Angle of Lineweaver-Burk line (inhibitor 0.06 mM) [°] | Vmax (inhibitor 0.08 mM) [mM/min] | 1/Vo, mean [1] [min/mM] | Peak area of product (4,4-dithio-bis-acid nitrobenzoic), mean [1] | V0 (reaction speed), mean [1] [mM/min] | 1/Vo, mean [2] [min/mM] | Peak area of product (4,4-dithio-bis-acid nitrobenzoic), mean [2] | V0 (reaction speed), mean [2] [mM/min] | 1/Vo, mean [3] [min/mM] | Peak area of product (4,4-dithio-bis-acid nitrobenzoic), mean [3] | V0 (reaction speed), mean [3] [mM/min] | amount of 4,4-dithio-bis-acid nitrobenzoic (DBAN) product in the presence of inhibitor [3] [mM] | other results
CCC12C(=O)C(CC)(C(c3ccccc3)=C1c1ccccc1)C1C(=O)N(CC(O)CNC(C)C)C(=O)C12 (centres unmarked) [Compound (I)] | competitive | 37 ± 1 | 0.63 ± 0.02 | 59.52 ± 0.04 | 0.62 ± 0.03 | 0.64 ± 0.01 | 65.42 ± 0.05 | 0.65 ± 0.01 | 69.66 ± 0.05 | 0.65 ± 0.01 | 9.30 | 49766 | 0.11 | 5.46 | 91263 | 0.18 | 3.55 | 128810 | 0.28 | 0.52 | 1/Vo, mean [4]: 2.30 min/mM; Peak area of product (4,4-dithio-bis-acid nitrobenzoic), mean [4]: 171159; V0 (reaction speed), mean [4]: 0.43 mM/min; 1/Vo, mean [5]: 2.05 min/mM; Peak area of product (4,4-dithio-bis-acid nitrobenzoic), mean [5]: 207149; V0 (reaction speed), mean [5]: 0.49 mM/min; 1/Vo, mean [6]: 1.80 min/mM; Peak area of product (4,4-dithio-bis-acid nitrobenzoic), mean [6]: 231267; V0 (reaction speed), mean [6]: 0.56 mM/min; 1/Vo, mean [7]: 1.70 min/mM; Peak area of product (4,4-dithio-bis-acid nitrobenzoic), mean [7]: 247792; V0 (reaction speed), mean [7]: 0.59 mM/min; 1/Vo, mean [8]: 1.55 min/mM; Peak area of product (4,4-dithio-bis-acid nitrobenzoic), mean [8]: 250475; V0 (reaction speed), mean [8]: 0.65 mM/min; 1/Vo, mean [9]: 1.50 min/mM; Peak area of product (4,4-dithio-bis-acid nitrobenzoic), mean [9]: 251643; V0 (reaction speed), mean [9]: 0.67 mM/min; Tilt Angle of Lineweaver-Burk line (inhibitor 0.08 mM): 70.32 ± 0.03 °
CCC12C(=O)C(CC)(C(c3ccccc3)=C1c1ccccc1)C1C(=O)N(CC(O)CN(C)C)C(=O)C12 (centres unmarked) [Compound (II)] | competitive | 39 ± 1 | 0.62 ± 0.03 | 59.46 ± 0.03 | 0.63 ± 0.02 | 0.65 ± 0.01 | 65.19 ± 0.06 | 0.65 ± 0.01 | 69.02 ± 0.05 | 0.65 ± 0.01 | 9.19 | 56086 | 0.11 | 5.40 | 102853 | 0.19 | 3.50 | 145167 | 0.29 | 0.58 | Tilt Angle of Lineweaver-Burk line (inhibitor 0.02 mM): 59.60 ± 0.08 °; 1/Vo, mean [4]: 2.30 min/mM; Peak area of product (4,4-dithio-bis-acid nitrobenzoic), mean [4]: 192894; V0 (reaction speed), mean [4]: 0.43 mM/min; 1/Vo, mean [5]: 2.05 min/mM; Peak area of product (4,4-dithio-bis-acid nitrobenzoic), mean [5]: 233453; V0 (reaction speed), mean [5]: 0.49 mM/min; 1/Vo, mean [6]: 1.80 min/mM; Peak area of product (4,4-dithio-bis-acid nitrobenzoic), mean [6]: 260635; V0 (reaction speed), mean [6]: 0.56 mM/min; 1/Vo, mean [7]: 1.70 min/mM; Peak area of product (4,4-dithio-bis-acid nitrobenzoic), mean [7]: 279258; V0 (reaction speed), mean [7]: 0.59 mM/min; 1/Vo, mean [8]: 1.55 min/mM; Peak area of product (4,4-dithio-bis-acid nitrobenzoic), mean [8]: 282281; V0 (reaction speed), mean [8]: 0.65 mM/min; 1/Vo, mean [9]: 1.50 min/mM; Peak area of product (4,4-dithio-bis-acid nitrobenzoic), mean [9]: 283597; V0 (reaction speed), mean [9]: 0.67 mM/min; Tilt Angle of Lineweaver-Burk line (inhibitor 0.08 mM): 70.02 ± 0.04 °
CC(C)NCC(O)CN1C(=O)C2C(C1=O)C1(C)C(=O)C2(C)C(c2ccccc2)=C1c1ccccc1 (centres unmarked) [Compound (III)] | competitive | 33 ± 1 | 0.63 ± 0.01 | 60.01 ± 0.03 | 0.63 ± 0.02 | 0.64 ± 0.03 | 67.38 ± 0.04 | 0.64 ± 0.03 | 70.42 ± 0.02 | 0.63 ± 0.02 | 10.1 | 39497 | 0.10 | 5.70 | 72431 | 0.18 | 3.55 | 102230 | 0.28 | 0.41 | Tilt Angle of Lineweaver-Burk line (inhibitor 0.02 mM): 62.28 ± 0.03 °; 1/Vo, mean [4]: 2.40 min/mM; Peak area of product (4,4-dithio-bis-acid nitrobenzoic), mean [4]: 135840; V0 (reaction speed), mean [4]: 0.42 mM/min; 1/Vo, mean [5]: 2.05 min/mM; Peak area of product (4,4-dithio-bis-acid nitrobenzoic), mean [5]: 164404; V0 (reaction speed), mean [5]: 0.49 mM/min; 1/Vo, mean [6]: 1.80 min/mM; Peak area of product (4,4-dithio-bis-acid nitrobenzoic), mean [6]: 183545; V0 (reaction speed), mean [6]: 0.56 mM/min; 1/Vo, mean [7]: 1.70 min/mM; Peak area of product (4,4-dithio-bis-acid nitrobenzoic), mean [7]: 196660; V0 (reaction speed), mean [7]: 0.59 mM/min; 1/Vo, mean [8]: 1.55 min/mM; Peak area of product (4,4-dithio-bis-acid nitrobenzoic), mean [8]: 198790; V0 (reaction speed), mean [8]: 0.65 mM/min; 1/Vo, mean [9]: 1.50 min/mM; Peak area of product (4,4-dithio-bis-acid nitrobenzoic), mean [9]: 199716; V0 (reaction speed), mean [9]: 0.64 mM/min; Tilt Angle of Lineweaver-Burk line (inhibitor 0.08 mM): 71.50 ± 0.03 °

From article PMC8745342, “In Vitro and In Silico Kinetic Studies of Patented 1,7-diEthyl and 1,7-diMethyl Aminoalkanol Derivatives as New Inhibitors of Acetylcholinesterase” (International Journal of Molecular Sciences, 2021)
